The results in this text go back to the supplement of paper PMC11424490.

Assay [1] has as its system NCI-H2122. As to the kind of experiment: fitted bottom plateau of viability curve, % of DMSO control; higher = less maximal inhibition; extreme values may be limits of the assay. The method, boiled down: (§1)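 Compounds were dispensed acoustically as dose series, one compound per well, 24 h after seeding cells in 60 µl per well of 384-well plates (800 cells/well for NCI-H2122, 500 cells/well for SW837 and NCI-H358). Plates were incubated 144 h for SW837 and 72 h for the other two lines, then shaken 15 min and read for CellTiter-Glo luminescence on an EnVision reader. Signals were converted to percent of DMSO controls. The relative IC50, averaged over replicates, and the lower plateau come from fitting a four-parameter nonlinear model.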

Assay [2] has as its system NCI-H358. The assay is described as above. The method, boiled down: as §1
Assay [3] concerns SW837. The description is as above. A digest of the protocol:
as §1

Assay [4] concerns NCI-H2122. As to the kind of experiment: relative IC50 of cell viability (CellTiter-Glo); higher = less potent. A digest of the protocol:
as §1
On the technique in general: ATP-based viability assays read luminescence as a measure of living cells.

Assay [5] has as its system NCI-H358. The description is as above. A digest of the protocol: as §1
Assay [6] relates to SW837. The description is as above. The method, boiled down:
as §1

Assay [7] has as its system NCI-H2122. As to the kind of experiment: combination cScore with adagrasib (Bliss gap around IC50) (%PoC); higher = stronger additive effect. A digest of the protocol: (§2)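 Scores represent the average Bliss-independence gap, expected minus measured viability, in a field surrounding both monotherapy IC50s, with the top concentrations used when no IC50 was reached. Cells (NCI-H2122, NCI-H358, SW837) were seeded at 500 or 800 per well in 384-well plates, dosed in matrices at 24 h and grown for 72 h, with SW837 grown for 144 h. Viability was measured by CellTiter-Glo, normalised to vehicle wells and fitted with four-parameter curves.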

Assay [8] has as its system NCI-H358. The assay is described as above. The method, boiled down:
as §2

Assay [9] relates to SW837. Described as above. A digest of the protocol:
as §2

The structures appear in SMILES notation.

Turning to `NC1(c2ccc(-c3nc4ccn5c(=O)[nH]nc5c4cc3-c3ccccc3)cc2)CCC1` [MK-2206] (top concentration tested 10000 nM), the “fitted bottom plateau of viability curve” value in the assay on NCI-H2122 [1] was 31.8%; in the assay on NCI-H358 [2], 33.4%; in the assay on SW837 [3] it was 79.9%. The entries for the “relative IC50 of cell viability” value in the assay with NCI-H2122 [4] and in the assay with NCI-H358 [5] were 2160 nM and 1990 nM, respectively.
As for `C#Cc1cccc(Nc2ncnc3cc(OCCOC)c(OCCOC)cc23)c1` [Erlotinib] (top concentration tested 10000 nM), the “fitted bottom plateau of viability curve” value in the assay on NCI-H2122 [1] is 29.5%; in the assay on NCI-H358 [2], 12.3%; in the assay on SW837 [3], 82.2%. For the same compound, the “relative IC50 of cell viability” value with NCI-H2122 [4] stood at 4260 nM; in the assay on NCI-H358 [5], 1300 nM.
For the compound `O=C(/C=C/c1cccc(S(=O)(=O)Nc2ccccc2)c1)NO` [Belinostat] (top concentration tested 10000 nM), the “fitted bottom plateau of viability curve” value came out at 1.64% in the assay on NCI-H2122 [1], 0.339% in the assay with NCI-H358 [2] and 0.0148% in the assay on SW837 [3]. Moreover, the “relative IC50 of cell viability” value with NCI-H2122 [4] is 274 nM; in the assay on NCI-H358 [5], 491 nM; in the assay on SW837 [6], 1050 nM.
`C=CC(=O)Nc1cc(Nc2nccc(-c3cn(C)c4ccccc34)n2)c(OC)cc1N(C)CCN(C)C` [Osimertinib] (top concentration tested 10000 nM): the “fitted bottom plateau of viability curve” value stood at 0.698% in the assay on NCI-H2122 [1], 0% in the assay on NCI-H358 [2] and 11.4% in the assay on SW837 [3]. Besides, the figures for the “relative IC50 of cell viability” value with NCI-H2122 [4], in the assay on NCI-H358 [5] and with SW837 [6] were 2560 nM, 1010 nM and 2210 nM, respectively.
For `Cc1nc(Nc2ncc(C(=O)Nc3c(C)cccc3Cl)s2)cc(N2CCN(CCO)CC2)n1` [Dasatinib] (top concentration tested 10000 nM), the results for the “fitted bottom plateau of viability curve” value in the assay on NCI-H2122 [1], with NCI-H358 [2] and with SW837 [3] were 78.1%, 0% and 0%, respectively. In addition, the “relative IC50 of cell viability” value with NCI-H358 [5] stood at 1360 nM; in the assay on SW837 [6] it was 7040 nM.
Consider `Cc1nc(Nc2n[nH]c3c2CN(C(=O)N[C@H](CN(C)C)c2ccccc2)C3(C)C)c2sccc2n1` (top concentration tested 9999.9 nM), for which the entries for the “fitted bottom plateau of viability curve” value with NCI-H2122 [1], with NCI-H358 [2] and in the assay with SW837 [3] were 11.9%, 5.57% and 0%, respectively. For the same compound, the “relative IC50 of cell viability” value in the assay on NCI-H2122 [4] is 11.9 nM; in the assay on NCI-H358 [5], 18.1 nM; in the assay on SW837 [6], 907 nM.
For the compound `O=C(O)CNC(=O)c1c(O)c2ccccc2n(Cc2ccccc2)c1=O` [IOX2] (top concentration tested 50000 nM), the “fitted bottom plateau of viability curve” value in the assay on NCI-H2122 [1] is 52.8%; with NCI-H358 [2], 2.49%; in the assay on SW837 [3] it was 52.6%. The figures for the “relative IC50 of cell viability” value in the assay with NCI-H2122 [4] and in the assay with NCI-H358 [5] were 51400 nM and 10800 nM, respectively.
With `C[C@@H]1CN(CC(=O)Nc2ccc3c(c2)Cc2cccc(-c4cc(=O)cc(N5CCOCC5)o4)c2S3)C[C@H](C)O1` (top concentration tested 50000 nM), the “fitted bottom plateau of viability curve” value is 31% in the assay on NCI-H2122 [1], 8.33% in the assay on NCI-H358 [2] and 0% with SW837 [3]. The entries for the “relative IC50 of cell viability” value in the assay on NCI-H2122 [4], with NCI-H358 [5] and with SW837 [6] were 11800 nM, 9010 nM and 39200 nM, respectively.
In the case of `Cc1c(CN2CCC(Nc3ncnc4sc(CC(F)(F)F)cc34)CC2)ccc2[nH]c(C#N)cc12` [MI-463] (top concentration tested 5000 nM), the “fitted bottom plateau of viability curve” value turned out to be 79.5% in the assay with NCI-H2122 [1], 0% in the assay on NCI-H358 [2] and 86.6% in the assay with SW837 [3]. Further, the “relative IC50 of cell viability” value with NCI-H358 [5] was 3910 nM.
For the compound `COC(=O)[C@]12CCC(C)(C)C[C@H]1[C@H]1C(=O)C=C3[C@@]4(C)C=C(C#N)C(=O)C(C)(C)[C@@H]4CC[C@@]3(C)[C@]1(C)CC2` [Bardoxolone methyl] (top concentration tested 1000 nM), the “fitted bottom plateau of viability curve” value amounted to 38.7% with NCI-H2122 [1], 0.645% in the assay on NCI-H358 [2] and 0% with SW837 [3]. For the same compound, the figures for the “relative IC50 of cell viability” value in the assay on NCI-H2122 [4], with NCI-H358 [5] and in the assay with SW837 [6] were 319 nM, 113 nM and 200 nM, respectively.
For `CCNC(=O)C[C@@H]1N=C(c2ccc(Cl)cc2)c2cc(OC)ccc2-n2c(C)nnc21` [iBET-762] (top concentration tested 10000 nM), the “fitted bottom plateau of viability curve” value in the assay with NCI-H2122 [1] was determined as 59.6%; in the assay with NCI-H358 [2], 53%; with SW837 [3], 37.6%. Besides, the “relative IC50 of cell viability” value came to 1430 nM in the assay on NCI-H358 [5] and 839 nM in the assay with SW837 [6].
In the case of `CC(C)C[C@H](NC(=O)[C@H](Cc1ccccc1)NC(=O)c1cnccn1)B(O)O` [Bortezomib] (top concentration tested 999.9 nM), the “fitted bottom plateau of viability curve” value in the assay on NCI-H2122 [1] was determined as 9.55%; in the assay on NCI-H358 [2], 0.755%; with SW837 [3] it was 0.446%. Moreover, the figures for the “relative IC50 of cell viability” value in the assay with NCI-H2122 [4], with NCI-H358 [5] and with SW837 [6] were 16.5 nM, 9.81 nM and 5.91 nM, respectively.
Consider `CNS(=O)(=O)Nc1nccc(Cc2c(C)c3ccc(Oc4ncccn4)cc3oc2=O)c1F` (top concentration tested 10000 nM), for which the “fitted bottom plateau of viability curve” value amounted to 1.94% in the assay on NCI-H2122 [1], 2.19% with NCI-H358 [2] and 18.8% in the assay with SW837 [3]. Besides, the “relative IC50 of cell viability” value in the assay with NCI-H2122 [4] amounted to 130 nM; in the assay with NCI-H358 [5] it was 513 nM; in the assay with SW837 [6], 1570 nM.
Consider `Cc1nc(NC(=O)N2CCC[C@H]2C(N)=O)sc1-c1ccnc(C(C)(C)C(F)(F)F)c1` [BYL-719] (top concentration tested 10000 nM), for which the “fitted bottom plateau of viability curve” value in the assay on NCI-H2122 [1] was 17.8%; in the assay with NCI-H358 [2], 10.9%; in the assay with SW837 [3], 77.5%. Besides, the “relative IC50 of cell viability” value was 2530 nM in the assay with NCI-H2122 [4] and 2610 nM with NCI-H358 [5].
With `C=CC(=O)N1CCC[C@@H](n2nc(-c3ccc(Oc4ccccc4)cc3)c3c(N)ncnc32)C1` [Ibrutinib] (top concentration tested 10000 nM), the figures for the “fitted bottom plateau of viability curve” value in the assay with NCI-H2122 [1], with NCI-H358 [2] and in the assay on SW837 [3] were 76.7%, 12.4% and 76.6%, respectively. For the same compound, the “relative IC50 of cell viability” value in the assay with NCI-H358 [5] amounted to 262 nM.
Regarding `CC(=O)c1c(C)c2cnc(Nc3ccc(N4CCNCC4)cn3)nc2n(C2CCCC2)c1=O` [Palbociclib] (top concentration tested 5000 nM), the “fitted bottom plateau of viability curve” value with NCI-H2122 [1] is 59.8%; in the assay on NCI-H358 [2], 34.2%; in the assay with SW837 [3], 93.5%. In addition, the “relative IC50 of cell viability” value with NCI-H358 [5] amounted to 859 nM.
Consider `COc1cc(Nc2ncc(F)c(Nc3ccc4c(n3)N(COP(=O)(O)O)C(=O)C(C)(C)O4)n2)cc(OC)c1OC` [Fostamatinib] + C=C(F)C(=O)N1CCN(c2nc(OC[C@@H]3CCCN3C)nc3c2CCN(c2cccc4cccc(Cl)c24)C3)C[C@@H]1CC#N [adagrasib], for which the “combination cScore with adagrasib” value with NCI-H2122 [7] was 17.4; in the assay on NCI-H358 [8] it was 3.37; with SW837 [9] it was 7.91.
